Experimental data published in PMC4112042, “Phase 1 dose-escalation study of the PARP inhibitor CEP-9722 as monotherapy or in combination with temozolomide in patients with solid tumors” (Cancer Chemotherapy and Pharmacology, 2014).

Key:
human bone marrow cells = test system: human bone marrow cells; parameters: method as in PMID 17699724; settings: CFU-GM colony-forming assay; cited from earlier work
PARP-2 = PARP-2 enzyme; cited from earlier work
[1] = Plasma pharmacokinetics of CEP-8983 after oral CEP-9722; format: in vivo, human; parameters: AUC0–∞, mean ± SD / AUC0–t, mean ± SD / AUCτ, mean ± SD: concentration or dose not given beside the values
Method: Pharmacokinetic serum samples were collected on day 1 of cycle 1 pre-dose and 0.5, 1, 2, 3, 4, 6, 8, 10, and 24 h post-dose; and on day 5 of cycle 1 and cycle 2 pre-dose, and 0.5, 1, 2, 3, 4, 6, 8, 10, 24, and 48 h post-dose. Urine samples were obtained on day 1 of cycle 1 during 4 intervals in the 24 h following study drug administration. Pharmacokinetic parameters (area under the plasma drug concentration–time curve from time 0 to infinity [AUC0–∞], AUC from time 0 to the time of the last measurable drug concentration [AUC0–t], AUC for 1 dosing interval [AUCτ] following multiple doses, maximum observed plasma concentration [C max], and time to maximum observed plasma concentration [T max]) were summarized at each visit (day 1 of cycle 1 and day 5 of cycles 1 and 2) using descriptive statistics.

[2] = nonacidic environments; cited from earlier work
PARP-1 = PARP-1 enzyme; cited from earlier work
[3] = in vivo; cited from earlier work
[4] = test system: chemoresistant tumor cells; parameters: method as in PMID 17699724; settings: in vitro and in xenograft models; cited from earlier work
[5] = day 5 of cycle 1, nonsmoker without medication affecting gastric pH, n = 13
[6] = day 5 of cycle 1, smoker and/or with medication affecting gastric pH, n = 11

mean AUC0–t ([1]; day 1 of cycle 1, nonsmokers not receiving gastric pH-modifying medications): 4,960.6 ng h/mL
mean AUC0–t ([1]; day 1 of cycle 1, smokers and/or patients receiving gastric pH-modifying medications): 2,747.3 ng h/mL
AUC0–t, mean ± SD [1, 5]: 3,138.0 ± 2,160.74 ng h/mL
AUC0–∞, mean ± SD [1, 5]: 4,111.0 ± 4,126.79 ng h/mL
AUCτ, mean ± SD [1, 5]: 3,851.1 ± 3,578.78 ng h/mL
C max, mean ± SD [1, 5]: 607.5 ± 319.87 ng/mL
CL/F, mean ± SD [1, 5]: 20.4 ± 25.80 L/h
Percentage extrapolation, mean ± SD [1, 5]: 3.7 ± 3.82%
V/F, mean ± SD [1, 5]: 58.1 ± 60.23 L
t max, mean ± SD [1, 5]: 36 ± 39.6 min
λ z, mean ± SD [1, 5]: 0.1 ± 0.13 h⁻¹
AUC0–t, mean ± SD [1, 6]: 1,339.3 ± 2,127.07 ng h/mL
AUC0–∞, mean ± SD [1, 6]: 2,838.9 ± 5,740.57 ng h/mL
AUCτ, mean ± SD [1, 6]: 2,304.7 ± 4,161.29 ng h/mL
C max, mean ± SD [1, 6]: 352.5 ± 380.57 ng/mL
CL/F, mean ± SD [1, 6]: 67.1 ± 62.14 L/h
Percentage extrapolation, mean ± SD [1, 6]: 5.5 ± 8.29%
V/F, mean ± SD [1, 6]: 102.3 ± 100.76 L
t 1/2, mean ± SD [1, 6]: 42 ± 46.2 min
t max, mean ± SD [1, 6]: 36 ± 39.6 min
λ z, mean ± SD [1, 6]: 0.2 ± 0.21 h⁻¹
mean AUC0–t ([1]; day 5 of cycle 2, nonsmokers not receiving gastric pH-modifying medications): 2,574.4 ng h/mL
mean AUC0–t ([1]; day 5 of cycle 2, smokers and/or patients receiving gastric pH-modifying medications): 1,457.9 ng h/mL
SMILES: COc1cccc2[nH]c3c4c(c5c(c3c12)C(=O)NC5=O)CCC4 [CEP-8983]
myelotoxicity of temozolomide (human bone marrow cells): only modest increases
IC50 (PARP-2): 6 nM
solubility [2]: poorly soluble
IC50 (PARP-1): 20 nM
oral bioavailability [3]: low oral bioavailability
sensitivity of chemoresistant tumor cells to temozolomide [4]: increased the sensitivity
